From BindingDB's records for doi:10.1111/j.1476-5381.1994.tb13148.x (Smithkline Beecham Pharmaceuticals, 1994) come the findings set out here.

The target of experiment [1] is 5-hydroxytryptamine receptor 1D (Cavia porcellus, UniProt Q60484).
The target in experiment [2] is Beta-2 adrenergic receptor (Homo sapiens, UniProt P07550).
Experiment [3] concerns the target 5-hydroxytryptamine receptor 1E (Homo sapiens, UniProt P28566).
The target of experiment [4] is T1, Adenosine receptor A1 (Rattus norvegicus, UniProt P25099).
T1 sequence (P25099 whole entry): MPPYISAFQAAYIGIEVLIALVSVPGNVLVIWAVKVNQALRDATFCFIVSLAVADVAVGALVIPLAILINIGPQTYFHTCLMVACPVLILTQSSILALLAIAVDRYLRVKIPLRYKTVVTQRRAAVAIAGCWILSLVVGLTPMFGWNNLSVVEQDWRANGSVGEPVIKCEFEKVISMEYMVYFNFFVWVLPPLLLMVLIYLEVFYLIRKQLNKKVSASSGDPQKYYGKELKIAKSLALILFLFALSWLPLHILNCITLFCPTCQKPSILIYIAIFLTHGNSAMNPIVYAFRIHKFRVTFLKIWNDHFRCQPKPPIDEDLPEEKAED

Experiment [5] addresses D(1A) dopamine receptor (Homo sapiens, UniProt P21728).
Experiment [6] concerns the target D(3) dopamine receptor (Homo sapiens, UniProt P35462).
In experiment [7] the target is T2, 5-hydroxytryptamine receptor 2C (Sus scrofa, UniProt G7ZKZ7).
T2 sequence (G7ZKZ7 whole entry): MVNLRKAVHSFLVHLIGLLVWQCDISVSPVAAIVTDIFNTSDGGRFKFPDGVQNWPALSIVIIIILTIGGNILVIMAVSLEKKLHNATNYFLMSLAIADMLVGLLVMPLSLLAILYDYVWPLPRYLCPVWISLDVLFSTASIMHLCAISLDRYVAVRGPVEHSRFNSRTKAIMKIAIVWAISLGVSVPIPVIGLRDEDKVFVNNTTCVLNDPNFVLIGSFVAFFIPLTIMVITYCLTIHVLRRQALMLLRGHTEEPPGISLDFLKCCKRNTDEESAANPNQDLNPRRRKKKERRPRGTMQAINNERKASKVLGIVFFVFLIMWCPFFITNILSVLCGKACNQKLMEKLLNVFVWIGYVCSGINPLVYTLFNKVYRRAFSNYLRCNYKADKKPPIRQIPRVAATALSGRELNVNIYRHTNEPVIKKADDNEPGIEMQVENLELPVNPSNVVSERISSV

Experiment [8] concerns the target 5-hydroxytryptamine receptor 2A (Homo sapiens, UniProt P28223).
The target in experiment [9] is T3, Solute carrier family 22 member 1 (Rattus norvegicus, UniProt Q63089).
T3 sequence (Q63089 whole entry): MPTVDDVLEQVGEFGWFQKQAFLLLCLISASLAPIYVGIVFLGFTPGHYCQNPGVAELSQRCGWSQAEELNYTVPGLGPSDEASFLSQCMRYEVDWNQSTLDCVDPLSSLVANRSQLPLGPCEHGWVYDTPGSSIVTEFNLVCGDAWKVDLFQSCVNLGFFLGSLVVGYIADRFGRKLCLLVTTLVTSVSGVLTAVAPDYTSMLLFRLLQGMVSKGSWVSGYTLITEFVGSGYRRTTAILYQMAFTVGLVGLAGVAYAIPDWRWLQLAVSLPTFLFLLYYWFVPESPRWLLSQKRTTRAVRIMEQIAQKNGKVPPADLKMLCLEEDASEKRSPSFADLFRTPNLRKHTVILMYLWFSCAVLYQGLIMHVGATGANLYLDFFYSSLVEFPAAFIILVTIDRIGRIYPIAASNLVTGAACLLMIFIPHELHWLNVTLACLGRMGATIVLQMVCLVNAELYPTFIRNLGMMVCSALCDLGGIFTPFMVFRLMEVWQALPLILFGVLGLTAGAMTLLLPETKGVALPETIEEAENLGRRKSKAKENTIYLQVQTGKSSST

Experiment [10] deals with Beta-1 adrenergic receptor (Homo sapiens, UniProt P08588).
In experiment [11] the target is Gamma-aminobutyric acid receptor subunit alpha-1 (Rattus norvegicus, UniProt P62813).
Experiment [12] has as its target T4, Gamma-aminobutyric acid receptor subunit alpha-1 (Homo sapiens, UniProt P14867).
T4 sequence (P14867 whole entry): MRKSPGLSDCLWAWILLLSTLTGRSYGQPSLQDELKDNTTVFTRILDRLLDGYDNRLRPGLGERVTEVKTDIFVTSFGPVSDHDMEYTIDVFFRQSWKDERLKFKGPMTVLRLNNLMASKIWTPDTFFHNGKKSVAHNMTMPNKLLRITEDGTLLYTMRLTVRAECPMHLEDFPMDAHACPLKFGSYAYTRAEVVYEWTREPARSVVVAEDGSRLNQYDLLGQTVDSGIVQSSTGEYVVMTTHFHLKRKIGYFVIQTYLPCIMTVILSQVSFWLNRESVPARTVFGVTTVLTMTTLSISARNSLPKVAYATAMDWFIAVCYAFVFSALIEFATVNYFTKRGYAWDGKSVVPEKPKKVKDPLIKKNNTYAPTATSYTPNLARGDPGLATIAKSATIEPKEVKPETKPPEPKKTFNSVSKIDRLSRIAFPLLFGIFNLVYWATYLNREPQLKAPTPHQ

The target in experiment [13] is T5, Adrenergic alpha2 receptor (Mesocricetus auratus, UniProt Q60533).
T5 sequence (Q60533 whole entry): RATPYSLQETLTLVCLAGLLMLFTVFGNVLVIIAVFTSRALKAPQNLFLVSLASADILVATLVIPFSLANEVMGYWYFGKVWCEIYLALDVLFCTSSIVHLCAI

Experiment [14] has as its target T6, 5-hydroxytryptamine receptor 3A (Rattus norvegicus, UniProt P35563).
T6 sequence (P35563 whole entry): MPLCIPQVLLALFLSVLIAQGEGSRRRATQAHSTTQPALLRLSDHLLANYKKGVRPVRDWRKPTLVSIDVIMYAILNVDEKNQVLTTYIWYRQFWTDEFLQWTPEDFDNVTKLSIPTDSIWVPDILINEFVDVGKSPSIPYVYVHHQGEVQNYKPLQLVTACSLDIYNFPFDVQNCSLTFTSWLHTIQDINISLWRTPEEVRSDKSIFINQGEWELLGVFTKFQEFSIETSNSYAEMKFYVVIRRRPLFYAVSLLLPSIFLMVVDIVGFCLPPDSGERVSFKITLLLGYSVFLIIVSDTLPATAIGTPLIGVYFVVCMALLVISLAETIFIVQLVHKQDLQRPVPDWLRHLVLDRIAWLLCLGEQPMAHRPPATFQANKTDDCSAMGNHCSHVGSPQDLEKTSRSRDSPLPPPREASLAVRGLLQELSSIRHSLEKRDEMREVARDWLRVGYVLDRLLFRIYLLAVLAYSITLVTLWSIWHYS

For experiment [15], the target named is D(2) dopamine receptor (Homo sapiens, UniProt P14416).

Usually Ki stands for the dissociation constant of the complex between target and ligand, obtained from inhibition or displacement. A lower Ki goes with tighter binding.

Sequence of Beta-1 adrenergic receptor (P08588 whole entry): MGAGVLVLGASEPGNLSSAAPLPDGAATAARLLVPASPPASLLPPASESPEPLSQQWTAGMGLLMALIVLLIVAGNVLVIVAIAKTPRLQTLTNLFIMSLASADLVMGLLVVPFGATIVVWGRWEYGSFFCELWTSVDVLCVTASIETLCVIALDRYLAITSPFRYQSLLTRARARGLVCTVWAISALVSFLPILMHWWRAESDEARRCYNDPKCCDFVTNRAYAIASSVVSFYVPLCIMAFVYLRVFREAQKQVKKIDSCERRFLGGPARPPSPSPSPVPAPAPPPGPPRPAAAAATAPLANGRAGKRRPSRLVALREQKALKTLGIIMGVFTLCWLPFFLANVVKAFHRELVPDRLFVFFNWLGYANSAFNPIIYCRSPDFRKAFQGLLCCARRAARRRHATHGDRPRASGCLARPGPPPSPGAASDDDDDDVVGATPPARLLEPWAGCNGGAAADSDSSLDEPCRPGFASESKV
Sequence of D(2) dopamine receptor (P14416 whole entry): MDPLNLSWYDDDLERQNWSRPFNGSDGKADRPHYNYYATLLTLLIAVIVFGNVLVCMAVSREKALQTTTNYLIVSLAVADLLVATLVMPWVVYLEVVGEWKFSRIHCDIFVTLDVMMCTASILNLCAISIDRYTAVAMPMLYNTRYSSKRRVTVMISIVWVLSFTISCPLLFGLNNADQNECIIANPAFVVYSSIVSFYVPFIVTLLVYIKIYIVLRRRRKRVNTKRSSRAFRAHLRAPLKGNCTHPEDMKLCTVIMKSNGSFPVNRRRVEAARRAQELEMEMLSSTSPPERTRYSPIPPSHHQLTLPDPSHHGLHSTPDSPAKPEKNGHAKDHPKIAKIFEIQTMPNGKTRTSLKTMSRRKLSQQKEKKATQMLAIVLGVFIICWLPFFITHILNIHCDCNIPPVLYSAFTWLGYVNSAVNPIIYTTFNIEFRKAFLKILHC
Sequence of D(3) dopamine receptor (P35462 as listed by the source): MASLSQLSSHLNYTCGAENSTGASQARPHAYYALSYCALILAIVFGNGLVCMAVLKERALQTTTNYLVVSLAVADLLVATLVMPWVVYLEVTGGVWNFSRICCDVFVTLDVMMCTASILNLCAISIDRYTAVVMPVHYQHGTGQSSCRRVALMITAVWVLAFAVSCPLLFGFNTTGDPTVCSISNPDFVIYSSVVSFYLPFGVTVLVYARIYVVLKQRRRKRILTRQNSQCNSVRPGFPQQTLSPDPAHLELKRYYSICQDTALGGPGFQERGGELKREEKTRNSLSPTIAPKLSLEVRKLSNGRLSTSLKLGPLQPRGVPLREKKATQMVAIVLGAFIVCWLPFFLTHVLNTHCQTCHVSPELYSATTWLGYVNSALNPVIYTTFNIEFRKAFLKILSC
Sequence of 5-hydroxytryptamine receptor 1D (Q60484 whole entry): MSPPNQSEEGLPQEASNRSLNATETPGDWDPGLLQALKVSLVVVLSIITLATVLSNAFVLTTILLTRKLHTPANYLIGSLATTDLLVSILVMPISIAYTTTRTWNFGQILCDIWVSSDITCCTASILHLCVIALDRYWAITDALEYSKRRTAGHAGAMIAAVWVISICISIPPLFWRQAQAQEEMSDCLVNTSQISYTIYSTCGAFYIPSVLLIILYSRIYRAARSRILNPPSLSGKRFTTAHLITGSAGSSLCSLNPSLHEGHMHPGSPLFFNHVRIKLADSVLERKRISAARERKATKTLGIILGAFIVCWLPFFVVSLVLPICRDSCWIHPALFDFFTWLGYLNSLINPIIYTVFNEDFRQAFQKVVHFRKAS
Sequence of 5-hydroxytryptamine receptor 1E (P28566 whole entry): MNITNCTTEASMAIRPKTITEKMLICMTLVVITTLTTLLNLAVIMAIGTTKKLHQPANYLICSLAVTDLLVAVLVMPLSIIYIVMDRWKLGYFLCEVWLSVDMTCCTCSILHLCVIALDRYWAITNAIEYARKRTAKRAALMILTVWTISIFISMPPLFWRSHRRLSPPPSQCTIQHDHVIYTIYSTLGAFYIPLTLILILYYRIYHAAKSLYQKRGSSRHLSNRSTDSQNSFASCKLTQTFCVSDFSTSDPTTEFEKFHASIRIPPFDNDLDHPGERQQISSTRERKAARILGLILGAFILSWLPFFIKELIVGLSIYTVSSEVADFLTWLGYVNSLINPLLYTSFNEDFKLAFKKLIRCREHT
Sequence of D(1A) dopamine receptor (P21728 whole entry): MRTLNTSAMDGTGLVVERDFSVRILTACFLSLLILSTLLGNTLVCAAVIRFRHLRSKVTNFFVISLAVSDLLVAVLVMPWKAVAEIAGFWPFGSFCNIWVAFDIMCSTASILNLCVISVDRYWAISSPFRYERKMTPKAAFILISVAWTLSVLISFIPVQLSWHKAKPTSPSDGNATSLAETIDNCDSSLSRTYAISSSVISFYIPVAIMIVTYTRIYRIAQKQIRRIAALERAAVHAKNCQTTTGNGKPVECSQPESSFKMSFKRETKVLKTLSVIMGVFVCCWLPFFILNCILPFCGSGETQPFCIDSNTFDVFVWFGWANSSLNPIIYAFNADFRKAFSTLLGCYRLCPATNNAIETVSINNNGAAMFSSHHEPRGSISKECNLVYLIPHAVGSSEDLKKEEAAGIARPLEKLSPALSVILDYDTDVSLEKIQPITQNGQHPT
Sequence of Gamma-aminobutyric acid receptor subunit alpha-1 (Rattus norvegicus, UniProt P62813) (P62813 whole entry): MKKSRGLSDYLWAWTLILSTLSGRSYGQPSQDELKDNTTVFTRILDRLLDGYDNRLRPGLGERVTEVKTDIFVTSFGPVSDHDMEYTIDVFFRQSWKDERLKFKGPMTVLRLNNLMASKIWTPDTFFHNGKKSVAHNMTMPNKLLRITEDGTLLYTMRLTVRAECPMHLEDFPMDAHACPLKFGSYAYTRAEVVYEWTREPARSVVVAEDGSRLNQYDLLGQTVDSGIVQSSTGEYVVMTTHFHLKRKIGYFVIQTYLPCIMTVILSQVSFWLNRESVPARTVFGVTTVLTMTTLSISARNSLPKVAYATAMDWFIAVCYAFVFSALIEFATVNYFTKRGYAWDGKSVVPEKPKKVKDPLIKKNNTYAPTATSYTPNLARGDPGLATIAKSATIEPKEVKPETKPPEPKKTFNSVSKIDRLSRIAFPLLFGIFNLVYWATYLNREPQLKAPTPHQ
Sequence of Beta-2 adrenergic receptor (P07550 whole entry): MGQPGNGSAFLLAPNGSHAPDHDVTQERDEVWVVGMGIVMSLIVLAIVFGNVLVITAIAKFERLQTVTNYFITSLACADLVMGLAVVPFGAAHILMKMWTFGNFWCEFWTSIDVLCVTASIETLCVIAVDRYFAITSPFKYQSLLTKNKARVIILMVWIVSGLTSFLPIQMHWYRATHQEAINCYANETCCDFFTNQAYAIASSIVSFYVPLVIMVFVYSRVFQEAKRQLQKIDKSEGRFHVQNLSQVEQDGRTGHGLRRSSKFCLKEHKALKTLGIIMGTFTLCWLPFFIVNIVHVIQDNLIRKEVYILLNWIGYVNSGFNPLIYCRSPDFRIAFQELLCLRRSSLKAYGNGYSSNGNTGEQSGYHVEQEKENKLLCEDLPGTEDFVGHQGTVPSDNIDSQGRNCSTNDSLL
Sequence of 5-hydroxytryptamine receptor 2A (P28223 whole entry): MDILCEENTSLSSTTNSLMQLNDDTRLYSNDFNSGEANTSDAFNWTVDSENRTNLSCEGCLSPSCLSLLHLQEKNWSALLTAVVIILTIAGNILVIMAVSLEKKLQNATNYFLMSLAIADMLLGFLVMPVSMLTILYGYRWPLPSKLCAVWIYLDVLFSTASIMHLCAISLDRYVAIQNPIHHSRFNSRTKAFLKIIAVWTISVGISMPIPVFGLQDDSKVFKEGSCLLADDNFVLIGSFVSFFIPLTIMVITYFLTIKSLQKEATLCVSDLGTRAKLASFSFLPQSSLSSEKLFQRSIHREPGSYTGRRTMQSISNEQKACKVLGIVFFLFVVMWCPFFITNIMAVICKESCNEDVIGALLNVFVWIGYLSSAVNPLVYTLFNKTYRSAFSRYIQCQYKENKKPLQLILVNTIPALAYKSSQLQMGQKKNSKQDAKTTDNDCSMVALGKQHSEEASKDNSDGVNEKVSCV

Turning to `CCCCN1CCC(COC(=O)c2cc(Cl)c(N)c3c2OCCO3)CC1` [CAS_121881], the Ki in [1] was over 10 µM; in experiment [2], 1 µM; in [3], over 10 µM; in experiment [4], over 10 µM; in [5] it was 1 µM; in [6] it was 1 µM. For the same compound, the Ki in [7] is 0.126 µM; in experiment [8] it was 1 µM; in [9], 1 µM; in experiment [10], 1 µM; in [11] it was over 10 µM; in [12] it was over 10 µM. Also, the inhibition constant Ki is 1 µM in [13], 0.398 µM in [14] and over 10 µM in experiment [15].
